Test results reported in patent USRE37664E1, “Use of derivatives of N-phenl-3,4,5,6-tetrahydrophthalimide for the desiccation and abscission of plant organs” (BASF Aktiengessellschaft, priority 1989, dated 2002).
Counter-ions that a name gives are not always drawn.

Columns and labels:
[1] = system: cotton plants (Delta Pine variety); assay: Defoliation of young cotton plants under greenhouse conditions, Example C; format: in vivo; details: foliar treatment of young cotton plants, 3 days after application, day/night 28/20° C., percentage of the control
Protocol: (§1) Young cotton plants (Delta Pine variety, stage of development: 5-6 developed foliage leaves) were cultivated under green house conditions (day/night temperature 28/20° C., relative humidity 514 70%) and the foliage was treated, until dripping wet, with aqueous formulations of the stated active ingredients. The converted amount of water was 1,000 l/ha. 3 days after application of the active ingredient, the number of dropped leaves and the degree of defoliation as a percentage of the control were stared. No dropping of leaves occurred in the untreated control plants.

[2] = system: cotton plants (Delta Pine variety); assay: Defoliation of young cotton plants under greenhouse conditions, Example A; format: in vivo; details: 12 days after application, day/night 23/16° C., as a percentage of the control
Protocol: as §1, with “development stage:” for “stage of development:”, “greenhouse” for “green house”, “23/16°” for “28/20°”, “50-70%)” for “514 70%)”, “12” for “3”, “stated.” for “stared.”

[3] = converted application rate 0.125 kg/ha
[4] = converted application rate 0.250 kg/ha

Row | SMILES | melting point | % defoliation [1, 3] | % defoliation [1, 4] | % defoliation ([2]; 0.062 kg/ha) | % defoliation ([2]; 0.125 kg/ha) | % defoliation ([2]; 0.250 kg/ha) | % defoliation ([2]; 0.500 kg/ha)
1 | Cc1ncccc1C(=O)N(C)C | 87 to 103 °C |  |  |  |  |  | 
2 | CC1CCCO1 (centres unmarked) |  | 48% | 53% |  |  |  | 
3 | O=C(Nc1ccccc1)Nc1cnns1 [Comparative agent I, N-phenyl-N′-(1,2,3-thiadiazol-5-yl)-urea, reference compound] |  |  |  | 13% | 31% | 67% | 
4 | c1cc[n+]2c(c1)-c1cccc[n+]1CC2 [Comparative agent II, 6,7-dihydropyridol(1,2-α:2′,1′-c)pyridilium as the dibromide monohydrate salt, reference compound] |  |  |  |  |  | 11% | 27%
5 | COC(=O)C(Br)=Cc1cc(N2C(=O)C3=C(CCCC3)C2=O)ccc1Cl [Compound 1.1] |  | 100% | 98% | 26% | 61% | 80% | 
6 | CCOC(=O)C(Cl)=Cc1cc(N2C(=O)C3=C(CCCC3)C2=O)ccc1Cl [Compound 1.17, N-[3-(1′-ethoxycarbonyl-1′-chloroethenyl)-4-chlorophenyl]-3,4,5,6-tetrahydrophthalimide] |  | 95% | 100% | 55% | 84% | 89% | 
7 | COC(=O)C(C)=Cc1cc(N2C(=O)C3=C(CCCC3)C2=O)ccc1Cl [Compound 1.26] |  |  |  | 67% | 79% | 89% | 
8 | CC1CSC(c2cc(N3C(=O)C4=C(CCCC4)C3=O)ccc2Cl)S1 (centres unmarked) [Compound 2.5] |  | 97% | 100% | 50% | 70% | 97% | 
9 | O=C1C2=C(CCCC2)C(=O)N1c1cc(OCC2CCCOC2)c(Cl)cc1F (centres unmarked) [Compound 4.1] |  |  |  | 83% |  |  | 
10 | COC(=O)C(C)ON=C(C#N)c1cc(N2C(=O)C3=C(CCCC3)C2=O)ccc1Cl (centres unmarked) [Compound 7.27] |  | 100% | 95% |  |  |  | 
